This is an account of results in ChEMBL document CHEMBL5380816, “Inclusion of Nitrofurantoin into the Realm of Cancer Chemotherapy via Biology-Oriented Synthesis and Drug Repurposing” (J Med Chem, 2023).

Usually IC50 stands for the concentration that inhibits the measured activity by half. A lower IC50 goes with inhibition by little substance.

The test system of assay [1] is Caco-2. The experiment in a line: Anticancer activity against human Caco-2 cells assessed as absence of normal spindle shape incubated at 0.098uM for 72 hrs by phase contrast inverted microscopic analysis. It is filed as functional, cell-based.
Assay [2] relates to MCF7. The experiment in a line: Anticancer activity against human MCF7 cells assessed as round cells incubated at 0.098uM for 72 hrs by phase contrast inverted microscopic analysis. Format: functional, cell-based.
Assay [3] has as its system MCF7. The experiment in a line: Anticancer activity against human MCF7 cells assessed as losing contact with neighbouring cells incubated at 0.098uM for 72 hrs by phase contrast inverted microscopic analysis. It is filed as functional, cell-based.
Assay [4] concerns HeLa. The experiment in a line: Anticancer activity against human HeLa cells assessed as cell shrinkage incubated at 0.098uM for 72 hrs by phase contrast inverted microscopic analysis. Format: functional, cell-based.
The test system of assay [5] is HepG2. The experiment in a line: Anticancer activity against human HepG2 cells assessed as absence of normal spindle shape incubated at 0.098uM for 72 hrs by phase contrast inverted microscopic analysis. It is filed as functional, cell-based.
Assay [6] has as its system Caco-2. The experiment in a line: Induction of apoptosis in human Caco-2 cells assessed as viable cells incubated at 0.098 uM for 72 hrs by annexin V-FITC based propidium iodide dual staining assay (reference value: 99.89%). Format: functional. Conditions: read-out: Activity.
Assay [7] concerns HepG2. The experiment in a line: Induction of apoptosis in human HepG2 cells assessed as late apoptotic cells incubated at 0.098 uM for 72 hrs by annexin V-FITC based propidium iodide dual staining assay (reference value: 0.66%). Format: functional.
In assay [8] the test system is Caco-2. The experiment in a line: Induction of apoptosis in human Caco-2 cells assessed as total apoptotic cells incubated at 0.098 uM for 72 hrs by annexin V-FITC based propidium iodide dual staining assay (reference value: 0.04 +/- 0.005%). It is filed as functional.
For assay [9], the system named is HeLa. The experiment in a line: Induction of oxidative stress in human HeLa cells assessed as cell death by measuring redox alteration fluorescence incubated at 0.11 uM for 72 hrs in presence of dihydro dichlorofluorescein diacetate by DCFH-DA based flow cytometric analysis relative to control. Format: functional. In general terms: Flow cytometry measures light scatter and fluorescence of single cells or particles in a stream.

Assay [10] relates to Caco-2. The experiment in a line: Induction of apoptosis in human Caco-2 cells assessed as late apoptotic cells incubated at 0.017 uM for 72 hrs by annexin V-FITC based propidium iodide dual staining assay (reference value: 0.02%). Format: functional.
The subject of assay [11] is HeLa. The experiment in a line: Induction of apoptosis in human HeLa cells assessed as viable cells incubated at 0.017 uM for 72 hrs by annexin V-FITC based propidium iodide dual staining assay (reference value: 97.23%). Format: functional. Conditions: read-out: Activity.
The test system of assay [12] is HepG2. The experiment in a line: Induction of oxidative stress in human HepG2 cells assessed as cell death by measuring redox alteration fluorescence incubated at 0.017 uM for 72 hrs in presence of dihydro dichlorofluorescein diacetate by DCFH-DA based flow cytometric analysis relative to control. It is filed as functional.
For assay [13], the system named is Caco-2. The experiment in a line: Anticancer activity against human Caco-2 cells assessed as round cells incubated at 0.11 uM for 72 hrs by phase contrast inverted microscopic analysis. Format: functional, cell-based.
Assay [14] deals with Caco-2. The experiment in a line: Anticancer activity against human Caco-2 cells assessed as absence of normal spindle shape incubated at 0.11 uM for 72 hrs by phase contrast inverted microscopic analysis. It is filed as functional, cell-based.
Assay [15] deals with HeLa. The experiment in a line: Anticancer activity against human HeLa cells assessed as round cells incubated at 0.11 uM for 72 hrs by phase contrast inverted microscopic analysis. Format: functional, cell-based.
The test system of assay [16] is Caco-2. The experiment in a line: Induction of apoptosis in human Caco-2 cells assessed as early apoptotic cells incubated at 0.11 uM for 72 hrs by annexin V-FITC based propidium iodide dual staining assay (reference value: 0.07%). It is filed as functional.
Assay [17] deals with Caco-2. The experiment in a line: Induction of apoptosis in human Caco-2 cells assessed as late apoptotic cells incubated at 0.11 uM for 72 hrs by annexin V-FITC based propidium iodide dual staining assay (reference value: 0.02%). It is filed as functional.
Assay [18] relates to MCF7. The experiment in a line: Induction of apoptosis in human MCF7 cells assessed as early apoptotic cells incubated at 0.11 uM for 72 hrs by annexin V-FITC based propidium iodide dual staining assay (reference value: 0.06%). It is filed as functional.
For assay [19], the system named is HepG2. The experiment in a line: Induction of apoptosis in human HepG2 cells assessed as late apoptotic cells incubated at 0.11 uM for 72 hrs by annexin V-FITC based propidium iodide dual staining assay (reference value: 0.66%). It is filed as functional.
For assay [20], the system named is HepG2. The experiment in a line: Induction of apoptosis in human HepG2 cells assessed as total apoptotic cells incubated at 0.11 uM for 72 hrs by annexin V-FITC based propidium iodide dual staining assay (reference value: 0.99 +/- 0.02%). Format: functional.
Assay [21] concerns Caco-2. The experiment in a line: Induction of apoptosis in human Caco-2 cells assessed as early apoptotic cells by measuring bright green patch incubated at 0.11 uM for 72 hrs by acridine orange-ethidium bromide dual staining based fluorescence microscopic analysis. It is filed as functional, cell-based.
Assay [22] has as its system HepG2. The experiment in a line: Induction of apoptosis in human HepG2 cells assessed as early apoptotic cells by measuring bright green patch incubated at 0.11 uM for 72 hrs by acridine orange-ethidium bromide dual staining based fluorescence microscopic analysis. It is filed as functional, cell-based.
Assay [23] has as its system dsDNA. The experiment in a line: Induction of damage in dsDNA (unknown origin) assessed as disrupted by DNA by measuring decrease in fluorescence intensity at 100 uM incubated for 50 mins by EvaGreen based fluorescence plate reader analysis. Format: nucleic-acid assay.
The subject of assay [24] is dsDNA. The experiment in a line: Induction of damage in dsDNA (unknown origin) assessed as DNA disruption by measuring amplitude at 100 uM incubated for 2.5 hrs by EvaGreen based fluorescence plate reader analysis. It is filed as nucleic-acid assay.
Assay [25] relates to HepG2. The experiment in a line: Anticancer activity against human HepG2 cells incubated for 24 hrs by MTT assay. It is filed as functional, cell-based. To be noted: HepG2, 24 h. For orientation: Formazan colour is commonly taken as a measure of viable cells.
The test system of a further assay is MDA-MB-231. The experiment in a line: Anticancer activity against human MDA-MB-231 cells incubated for 24 hrs by MTT assay. To be noted: MDA-MB-231, 24 h. Format: functional, cell-based.
Another assay is filed under the species Homo sapiens. The experiment in a line: Selectivity index, ratio IC50 for human MDA-MB-231 cells to IC50 for human MCF7 cells.
For assay [26], the system named is MCF7. The experiment in a line: Induction of cell cycle arrest in human MCF7 cells assessed as accumulation of cells at sub-G0/G1 phase incubated for 24 hrs. Format: functional, cell-based.
Assay [27] relates to Caco-2. The experiment in a line: Anticancer activity against human Caco-2 cells assessed as losing contact with neighbouring cells incubated at 0.097uM for 72 hrs by phase contrast inverted microscopic analysis. It is filed as functional, cell-based.
In assay [28] the test system is MCF7. The experiment in a line: Anticancer activity against human MCF7 cells assessed as losing contact with neighbouring cells incubated at 0.097uM for 72 hrs by phase contrast inverted microscopic analysis. Format: functional, cell-based.
The test system of assay [29] is MCF7. The experiment in a line: Anticancer activity against human MCF7 cells assessed as absence of normal spindle shape incubated at 0.097uM for 72 hrs by phase contrast inverted microscopic analysis. It is filed as functional, cell-based.
Assay [30] has as its system Caco-2. The experiment in a line: Induction of apoptosis in human Caco-2 cells assessed as late apoptotic cells incubated at 0.097 uM for 72 hrs by annexin V-FITC based propidium iodide dual staining assay (reference value: 0.02%). It is filed as functional.
For assay [31], the system named is HepG2. The experiment in a line: Induction of apoptosis in human HepG2 cells assessed as viable cells incubated at 0.097 uM for 72 hrs by annexin V-FITC based propidium iodide dual staining assay (reference value: 97.27%). To be noted: read-out: Activity. Format: functional.
Assay [32] concerns MCF7. The experiment in a line: Induction of apoptosis in human MCF7 cells assessed as total apoptotic cells incubated at 0.097 uM for 72 hrs by annexin V-FITC based propidium iodide dual staining assay (reference value: 0.04 %). It is filed as functional.
Assay [33] deals with HeLa. The experiment in a line: Induction of apoptosis in human HeLa cells assessed as total apoptotic cells incubated at 0.097 uM for 72 hrs by annexin V-FITC based propidium iodide dual staining assay (reference value: 0 +/- 0.035%). It is filed as functional.
Assay [34] concerns MCF7. The experiment in a line: Induction of apoptosis in human MCF7 cells assessed as early apoptotic cells by measuring bright green patch incubated at 0.097 uM for 72 hrs by acridine orange-ethidium bromide dual staining based fluorescence microscopic analysis. Format: functional, cell-based.

Calls of active or inactive are those of the source. The calls are words filed in the database; no cut-off is given here.

`O=C(CN1C(=O)CN(/N=C/c2ccc([N+](=O)[O-])o2)C1=O)c1ccc(Cl)cc1`: the result in the assay with Caco-2 [1], with MCF7 [2], in the assay on MCF7 [3], in the assay with HeLa [4] and with HepG2 [5] was Active. For the same compound, in the assay with Caco-2 [6], the viability at 0.098 µM amounted to 60.6%. Further, the Activity with HepG2 [7] turned out to be 34.89%; with Caco-2 [8], 30.95%; in the assay on HeLa [9], 32.41%.
`O=c1[nH]cc(F)c(=O)[nH]1` [FLUOROURACIL]: the Activity in the assay on Caco-2 [10] came to 2.71%; in the assay with HepG2 [12], 4.78%. Also, in the assay with HeLa [11], the viability at 0.017 µM is 88.1%.
With `C#CCN1C(=O)CN(/N=C/c2ccc([N+](=O)[O-])o2)C1=O`, the outcome with Caco-2 [13], in the assay with Caco-2 [14], with HeLa [15], with Caco-2 [21], in the assay with HepG2 [22] and with dsDNA [23] was Active. In addition, the outcome with MCF7 [26] was Active. In addition, the Activity stood at 4.84% in the assay on Caco-2 [16]; 42.24% in the assay on Caco-2 [17]; 7.55% in the assay with MCF7 [18]; 59.49% with HepG2 [19]; 63.15% with HepG2 [20]; 177 in the assay with dsDNA [24]. For the same compound, the IC50 in the assay on HepG2 [25] was 117 µM; in the assay on MDA-MB-231, 242 µM. Besides, in the assay listed under Homo sapiens, the Ratio IC50 worked out at 2.
Turning to `NS(=O)(=O)c1ccc(-n2cc(CN3C(=O)CN(/N=C/c4ccc([N+](=O)[O-])o4)C3=O)nn2)cc1`, the result in the assay on Caco-2 [27], with MCF7 [28], in the assay with MCF7 [29] and in the assay with MCF7 [34] was Active. Also, the Activity is 22.46% in the assay with Caco-2 [30], 64.08% in the assay on MCF7 [32] and 39.42% with HeLa [33]. In addition, the viability at 0.097 µM with HepG2 [31] is 78.9%.
